Experimental data published in patent US12234221B2, “Pyridine carboxamide compounds for inhibiting NAV1.8” (Lieber Institute, Inc., priority 2018, dated 2025).

What follows are compounds tested against T1, human Nav1.8 (hNav1.8) ion channel (Homo sapiens, UniProt Q9Y5Y9) (assay: Nav1.8 channel inhibition, estimated IC50 (one or more of: fluorescence inhibition assay, PatchXpress, IonFlux HT automated patch clamp)). Conditions: HEK293 cells stably expressing hNav1.8; method used per compound not stated; read-out: Activity range (estimated IC50).
T1 construct: expressed in transfected cells; host or cells: HEK293
Format: cell-based
Description: The ability of pyridine carboxamide derivatives exemplified above to inhibit the Nav1.8 channel was determined using one or more of the methods described below.
HEK Nav1.8 β1/β2 Stably Expressing Cell Line
A HEK293 cell line stably expressing the human Nav1.8 (hNav1.8) ion channel with β1/β2 subunits was constructed. The cell line is suitable for IC50 determination in fluorescence and electrophysiological based assays. It is also suitable to form mechanism of action pharmacology studies in electrophysiological assays. HEK293 Nav 1.8 cells are grown as adherent monolayers in DMEM/high glucose media, 10% fetal bovine serum, Na pyruvate (2 mM), Hepes (10 mM) with selection agents G418 (400 mg/L) and puromycin (0.5 mg/L) at 37 degrees C., 10% CO2.
Nav 1.8 Fluorescence Inhibition Assay
Compounds were made up to or supplied as a 10-mM stock solution using DMSO as the vehicle. Concentration-response curves were generated using a Matrix multichannel pipettor. Compound source plates were made by diluting 10 mM compound stocks to create 500 μM (100×) solutions in DMSO in 96-well v-bottom plates. Compounds were then serially diluted in 100% DMSO to generate a 5 point, 4-fold dilution scheme dose response curve. 2 μL of the 100× dose response curves was then added to preincubation and stimulation assay plates. 100 μL of pre-incubation buffer and 200 μL of stimulation buffer were then added to the plates resulting in a final assay test concentration range of 5 μM to 0.02 μM with a final DMSO concentration of 1%.
On the day of assay, plates were washed to remove cell culture media using 2K EBSS buffer (135 mM NaCl, 2 mM KCl, 5 mM Glucose, 2 mM CaCl2), 1 mM MgCl2, 10 mM HEPES, pH 7.4). The Na-sensitive fluorescent dye, Asante Natrium Green-2 (ANG-2) is incubated for 60 min to allow equilibration and then washed with 2K EBSS. Plates are the transferred to a fluorescence plate reader (FLIPR™, Molecular Devices) for fluorescence measurement using an excitation wavelength of 490 nm and an emission wavelength of 565 nm. Compounds are pre-incubated at for 5 min at final test concentration in the presence of ouabain (30 μM) to inhibit Na+ efflux through Na+/K+ exchanger. Following the pre-incubation phase, hNav1.8 channels are stimulated with 10 μM of the pyrethroid deltamethrin to prevent channel inactivation. The assay was run for 15 min with vehicle and 30 μM tetracaine serving as negative and positive controls, respectively. The peak change in fluorescence relative to negative and positive control wells was calculated and fit with a logistic equation to determine IC50.
PatchXpress Nav 1.8 Inhibition Assay
HEK-Nav1.8 β1/β2 cells were recorded in whole cell patch-clamp using the PatchXpress automated patch clamp platforms (Molecular Devices). Cells suspensions were obtained by trypsinization of adherent monolayers, followed by gentle rocking for minimally 30 min. Compounds were prepared from 10 mM DMSO stocks.
Nav1.8 channel variants were evaluated using Protocol 1 (FIG. 2) in which cells were initially voltage clamped at a holding potential of −100 mV to maintain Nav1.8 in a closed resting state. After current amplitude becomes stable, the mid-point voltage of steady state inactivation was determined for each cell using a series of 5 sec conditioning steps to increasingly depolarized voltages (−100 to 0 mV) The holding potential was then reset to a voltage that produces ˜50% inactivation (Vhalf−set automatically via PatchXpress scripts) so that closed and inactivated channel inhibition can be assessed. Protocol 1 was run at a frequency of 0.1 Hz until current amplitude is steady (automatically determined by PatchXpress scripts). The effect of test reagent on Nav current amplitude was monitored using custom PatchXpress stability scripts which determines the timing of compound addition and washout. Data were processed and analyzed using DataXpress 2.0 (Molecular Devices). […]

T1 sequence (Q9Y5Y9 whole entry): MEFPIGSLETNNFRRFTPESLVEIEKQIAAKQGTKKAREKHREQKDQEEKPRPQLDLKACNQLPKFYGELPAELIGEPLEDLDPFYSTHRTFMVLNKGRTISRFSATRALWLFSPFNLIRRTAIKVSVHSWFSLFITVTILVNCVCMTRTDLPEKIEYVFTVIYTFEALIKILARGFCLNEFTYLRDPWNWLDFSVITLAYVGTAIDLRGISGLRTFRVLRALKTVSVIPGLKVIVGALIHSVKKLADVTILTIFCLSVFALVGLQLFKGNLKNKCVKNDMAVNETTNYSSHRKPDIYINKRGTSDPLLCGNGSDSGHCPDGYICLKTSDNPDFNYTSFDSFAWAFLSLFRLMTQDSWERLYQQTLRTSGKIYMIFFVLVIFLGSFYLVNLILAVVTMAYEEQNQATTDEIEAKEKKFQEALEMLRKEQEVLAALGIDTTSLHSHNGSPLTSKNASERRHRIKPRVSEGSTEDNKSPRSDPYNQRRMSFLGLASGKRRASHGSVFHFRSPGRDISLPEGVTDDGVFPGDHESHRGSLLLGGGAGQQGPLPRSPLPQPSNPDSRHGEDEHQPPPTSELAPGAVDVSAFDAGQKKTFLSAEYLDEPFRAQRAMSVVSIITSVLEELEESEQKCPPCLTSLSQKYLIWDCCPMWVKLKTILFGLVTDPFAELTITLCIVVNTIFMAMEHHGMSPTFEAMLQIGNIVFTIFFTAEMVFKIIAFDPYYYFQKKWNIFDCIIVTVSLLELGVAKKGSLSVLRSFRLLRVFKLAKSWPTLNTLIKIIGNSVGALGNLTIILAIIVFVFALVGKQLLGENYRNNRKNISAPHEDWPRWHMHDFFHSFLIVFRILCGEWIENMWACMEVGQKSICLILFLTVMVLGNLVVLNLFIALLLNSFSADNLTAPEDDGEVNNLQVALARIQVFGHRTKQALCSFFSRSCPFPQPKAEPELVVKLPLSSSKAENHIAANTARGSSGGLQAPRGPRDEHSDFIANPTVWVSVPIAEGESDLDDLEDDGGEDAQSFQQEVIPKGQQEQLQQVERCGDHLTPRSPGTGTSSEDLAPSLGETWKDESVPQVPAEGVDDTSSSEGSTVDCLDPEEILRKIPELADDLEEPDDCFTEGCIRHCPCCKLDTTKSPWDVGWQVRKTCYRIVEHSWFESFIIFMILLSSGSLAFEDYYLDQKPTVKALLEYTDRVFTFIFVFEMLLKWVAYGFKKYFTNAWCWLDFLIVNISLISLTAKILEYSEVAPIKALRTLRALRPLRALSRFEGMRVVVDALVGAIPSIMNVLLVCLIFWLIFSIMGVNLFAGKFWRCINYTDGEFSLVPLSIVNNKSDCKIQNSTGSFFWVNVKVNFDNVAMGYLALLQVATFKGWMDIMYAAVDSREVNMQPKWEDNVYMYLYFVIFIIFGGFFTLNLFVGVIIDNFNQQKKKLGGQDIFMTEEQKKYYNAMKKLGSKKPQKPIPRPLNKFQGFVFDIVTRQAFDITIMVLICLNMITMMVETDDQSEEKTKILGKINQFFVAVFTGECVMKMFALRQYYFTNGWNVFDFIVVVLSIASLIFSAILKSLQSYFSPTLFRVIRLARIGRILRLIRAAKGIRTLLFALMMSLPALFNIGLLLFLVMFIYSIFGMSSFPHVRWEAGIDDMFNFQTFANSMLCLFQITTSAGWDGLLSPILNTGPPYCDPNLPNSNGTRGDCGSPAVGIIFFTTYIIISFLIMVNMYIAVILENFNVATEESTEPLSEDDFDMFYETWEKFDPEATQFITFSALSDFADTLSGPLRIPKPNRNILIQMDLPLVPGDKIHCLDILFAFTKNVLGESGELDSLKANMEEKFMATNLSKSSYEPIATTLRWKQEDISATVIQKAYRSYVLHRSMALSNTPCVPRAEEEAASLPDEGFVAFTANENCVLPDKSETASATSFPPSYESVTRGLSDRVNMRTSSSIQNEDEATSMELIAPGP

Row | IC50 [µM] | Structure (SMILES)
1 | < 0.5 | CS(=N)(=O)c1cccc(NC(=O)c2cc(C(F)(F)F)cnc2Oc2ccc(OC(F)(F)F)cc2)c1 (single isomer, unassigned) [Example 130, N-[3-(methylsulfonimidoyl)phenyl]-2-[4-(trifluoromethoxy)phenoxy]-5-(trifluoromethyl)pyridine-3-carboxamide]
2 | < 0.5 | CS(=N)(=O)c1cccc(NC(=O)c2cc(C(F)(F)F)cnc2Oc2ccc(OC(F)(F)F)cc2)c1 (single isomer, unassigned) [Example 131, N-[3-(methylsulfonimidoyl)phenyl]-2-[4-(trifluoromethoxy)phenoxy]-5-(trifluoromethyl)pyridine-3-carboxamide]
3 | > 1 | COc1cc(F)ccc1Oc1ncc(C(F)(F)F)cc1C(=O)Nc1ccc2ncsc2c1 [Example 1, N-(1,3-benzothiazol-6-yl)-2-(4-fluoro-2-methoxy-phenoxy)-5-(trifluoromethyl)pyridine-3-carboxamide]
4 | > 1 | COc1cc(F)ccc1Oc1ncc(C(F)(F)F)cc1C(=O)Nc1cccc(N2CCOCC2)c1 [Example 2, 2-(4-fluoro-2-methoxy-phenoxy)-N-(3-morpholinophenyl)-5-(trifluoromethyl)pyridine-3-carboxamide]
5 | < 0.5 | COc1cc(F)ccc1Oc1ncc(C(F)(F)F)cc1C(=O)Nc1cccc(C#N)c1 [Example 3, N-(3-cyanophenyl)-2-(4-fluoro-2-methoxy-phenoxy)-5-(trifluoromethyl)pyridine-3-carboxamide]
6 | > 1 | COc1cc(F)ccc1Oc1ncc(C(F)(F)F)cc1C(=O)Nc1cccnc1 [Example 4, 2-(4-fluoro-2-methoxy-phenoxy)-N-(3-pyridyl)-5-(trifluoromethyl)pyridine-3-carboxamide]
7 | > 1 | COc1cc(F)ccc1Oc1ncc(C(F)(F)F)cc1C(=O)Nc1ccc(C#N)cc1 [Example 5, N-(4-cyanophenyl)-2-(4-fluoro-2-methoxy-phenoxy)-5-(trifluoromethyl)pyridine-3-carboxamide]
8 | 0.5 to 1 | COc1cc(F)ccc1Oc1ncc(C(F)(F)F)cc1C(=O)Nc1ccncc1 [Example 6, 2-(4-fluoro-2-methoxy-phenoxy)-N-(4-pyridyl)-5-(trifluoromethyl)pyridine-3-carboxamide]
9 | > 1 | COc1cc(F)ccc1Oc1ncc(C(F)(F)F)cc1C(=O)Nc1ccc(C#N)nc1 [Example 7, N-(6-cyano-3-pyridyl)-2-(4-fluoro-2-methoxy-phenoxy)-5-(trifluoromethyl)pyridine-3-carboxamide]
10 | < 0.5 | COc1cc(F)ccc1Oc1ncc(C(F)(F)F)cc1C(=O)Nc1cccc([S+](C)[O-])c1 (stereo not drawn) [Example 8, 2-(4-fluoro-2-methoxy-phenoxy)-N-(3-methylsulfinylphenyl)-5-(trifluoromethyl)pyridine-3-carboxamide]
11 | > 1 | COc1cc(F)ccc1Oc1ncc(C(F)(F)F)cc1C(=O)Nc1cccc(-c2cnco2)c1 [Example 9, 2-(4-fluoro-2-methoxy-phenoxy)-N-(3-oxazol-5-ylphenyl)-5-(trifluoromethyl)pyridine-3-carboxamide]
12 | < 0.5 | COc1cc(F)ccc1Oc1ncc(C(F)(F)F)cc1C(=O)Nc1cccc(S(=O)(=O)N(C)C)c1 [Example 10, N-[3-(dimethylsulfamoyl)phenyl]-2-(4-fluoro-2-methoxy-phenoxy)-5-(trifluoromethyl)pyridine-3-carboxamide]
13 | > 1 | COc1cc(F)ccc1Oc1ncc(C(F)(F)F)cc1C(=O)Nc1nc2ccccc2s1 [Example 11, N-(1,3-benzothiazol-2-yl)-2-(4-fluoro-2-methoxy-phenoxy)-5-(trifluoromethyl)pyridine-3-carboxamide]
14 | < 0.5 | COc1cc(F)ccc1Oc1ncc(C(F)(F)F)cc1C(=O)Nc1ccncn1 [Example 12, 2-(4-fluoro-2-methoxy-phenoxy)-N-pyrimidin-4-yl-5-(trifluoromethyl)pyridine-3-carboxamide]
15 | > 1 | COc1cc(F)ccc1Oc1ncc(C(F)(F)F)cc1C(=O)Nc1cccc(S(=O)(=O)C(F)(F)F)c1 [Example 13, 2-(4-fluoro-2-methoxy-phenoxy)-5-(trifluoromethyl)-N-[3-(trifluoromethylsulfonyl)phenyl]pyridine-3-carboxamide]
16 | < 0.5 | COc1cc(F)ccc1Oc1ncc(C(F)(F)F)cc1C(=O)Nc1cccc(S(C)(=N)=O)c1 (stereo not drawn) [Example 14, 2-(4-fluoro-2-methoxy-phenoxy)-N-[3-(methylsulfonimidoyl)phenyl]-5-(trifluoromethyl)pyridine-3-carboxamide]
17 | > 1 | COc1cc(NC(=O)c2cc(C(F)(F)F)cnc2Oc2ccc(F)cc2OC)ccn1 [Example 15, 2-(4-fluoro-2-methoxy-phenoxy)-N-(2-methoxy-4-pyridyl)-5-(trifluoromethyl)pyridine-3-carboxamide]
18 | < 0.5 | CN=S(C)(=O)c1cccc(NC(=O)c2cc(C(F)(F)F)cnc2Oc2ccc(F)cc2OC)c1 (stereo not drawn) [Example 16, N-[3-(N,S-dimethylsulfonimidoyl)phenyl]-2-(4-fluoro-2-methoxy-phenoxy)-5-(trifluoromethyl)pyridine-3-carboxamide]
19 | > 1 | COc1cc(F)ccc1Oc1ncc(C(F)(F)F)cc1C(=O)Nc1ccnc(C)c1 [Example 17, 2-(4-fluoro-2-methoxy-phenoxy)-N-(2-methyl-4-pyridyl)-5-(trifluoromethyl)pyridine-3-carboxamide]
20 | > 1 | COc1cc(F)ccc1Oc1ncc(C(F)(F)F)cc1C(=O)Nc1ccc(C)nc1 [Example 18, 2-(4-fluoro-2-methoxy-phenoxy)-N-(6-methyl-3-pyridyl)-5-(trifluoromethyl)pyridine-3-carboxamide]
21 | 0.5 to 1 | COc1cc(F)ccc1Oc1ncc(C(F)(F)F)cc1C(=O)Nc1ccnnc1 [Example 19, 2-(4-fluoro-2-methoxy-phenoxy)-N-pyridazin-4-yl-5-(trifluoromethyl)pyridine-3-carboxamide]
22 | > 1 | COc1cc(F)ccc1Oc1ncc(C(F)(F)F)cc1C(=O)Nc1cccc(N=S(C)(C)=O)c1 [Example 20, N-[3-[[dimethyl(oxo)-λ^6-sulfanylidene]amino]phenyl]-2-(4-fluoro-2-methoxy-phenoxy)-5-(trifluoromethyl)pyridine-3-carboxamide]
23 | < 0.5 | CS(=O)(=O)c1cccc(NC(=O)c2cc(C(F)(F)F)cnc2Oc2ccc(Cl)cc2Cl)c1 [Example 21, 2-(2,4-dichlorophenoxy)-N-(3-methylsulfonylphenyl)-5-(trifluoromethyl)pyridine-3-carboxamide]
24 | > 1 | Cc1ccc(Oc2ncc(C(F)(F)F)cc2C(=O)Nc2cccc(S(C)(=O)=O)c2)c(C)c1 [Example 22, 2-(2,4-dimethylphenoxy)-N-(3-methylsulfonylphenyl)-5-(trifluoromethyl)pyridine-3-carboxamide]
25 | < 0.5 | COc1ccc(Oc2ncc(C(F)(F)F)cc2C(=O)Nc2cccc(S(C)(=O)=O)c2)c(Cl)c1 [Example 23, 2-(2-chloro-4-methoxy-phenoxy)-N-(3-methylsulfonylphenyl)-5-(trifluoromethyl)pyridine-3-carboxamide]
26 | > 1 | CCCc1ccccc1Oc1ncc(C(F)(F)F)cc1C(=O)Nc1cccc(S(C)(=O)=O)c1 [Example 24, N-(3-methylsulfonylphenyl)-2-(2-propylphenoxy)-5-(trifluoromethyl)pyridine-3-carboxamide]
27 | > 1 | COc1cc(C)ccc1Oc1ncc(C(F)(F)F)cc1C(=O)Nc1cccc(S(C)(=O)=O)c1 [Example 25, 2-(2-methoxy-4-methyl-phenoxy)-N-(3-methylsulfonylphenyl)-5-(trifluoromethyl)pyridine-3-carboxamide]
